Laboratory results published in the supplement of paper PMC10307832.

How the values were obtained:
Test in all cases: relative viability (nuclei count vs DMSO), 5 days (fraction); higher = more cells survive
[1] = compound: CN(C)CC1=CC(=CC=C1)N=C(C2=CC=CC=C2)C3=C(NC4=C3C=CC(=C4)C(=O)N(C)C)O
Method in brief: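 Lung cancer cell lines received five library-drug doses (not always all listed) spaced by √10, pinned on vehicle-anchored 1536-well plates after an overnight stay at 37 °C. Five days later, with no medium change, nuclei were Hoechst-stained, imaged at 4× and counted with MetaXpress. Viability is treated-well nuclei relative to vehicle-well nuclei, as a median across plates. Passing plates had control CV below 25% and at least one doubling.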

[2] = compound: CN(C)CC1=CC(=CC=C1)N=C(C2=CC=CC=C2)C3=C(NC4=C3C=CC(=C4)C(=O)N(C)C)O + CC(=O)Nc1cccc(-n2c(=O)n(C3CC3)c(=O)c3c(Nc4ccc(I)cc4F)n(C)c(=O)c(C)c32)c1 [Trametinib] (partner 0.02 µM)
Method in brief: (§1)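 One day after seeding in 1536-well plates, lung cancer cell lines were dosed by pin tool. Dosing was either single-drug or a fixed anchor-drug dose plus five library-drug doses (not always all listed) in √10 steps. After 5 days, nuclei were stained in one fix-and-stain step and counted on 4× images, and relative viability is the nuclei count of treated wells over that of vehicle wells, given as the median of duplicate plates.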

[3] = compound: CN(C)CC1=CC(=CC=C1)N=C(C2=CC=CC=C2)C3=C(NC4=C3C=CC(=C4)C(=O)N(C)C)O + N=C(N)NC(=N)NCCc1ccccc1 [Phenformin] (partner 250 µM)
Method in brief: as §1

[4] = compound: CN(C)CC1=CC(=CC=C1)N=C(C2=CC=CC=C2)C3=C(NC4=C3C=CC(=C4)C(=O)N(C)C)O + COc1cccc2cc(-c3nc([C@H]4CC[C@H](C(=O)O)CC4)n4ncnc(N)c34)[nH]c12 [OSI-027] (partner 0.5 µM)
Method in brief: as §1

Row | Cell Line | relative viability ([1]; 0.08 µM) | relative viability ([1]; 0.253 µM) | relative viability ([1]; 0.8 µM) | relative viability ([1]; 2.53 µM) | relative viability ([1]; 8 µM) | relative viability ([2]; first compound 0.08 µM) | relative viability ([2]; first compound 0.253 µM) | relative viability ([2]; first compound 0.8 µM) | relative viability ([2]; first compound 2.53 µM) | relative viability ([2]; first compound 8 µM) | relative viability ([3]; first compound 0.08 µM) | relative viability ([3]; first compound 0.253 µM) | relative viability ([3]; first compound 0.8 µM) | relative viability ([3]; first compound 2.53 µM) | relative viability ([3]; first compound 8 µM) | relative viability ([4]; first compound 0.08 µM) | relative viability ([4]; first compound 0.253 µM) | relative viability ([4]; first compound 0.8 µM) | relative viability ([4]; first compound 2.53 µM) | relative viability ([4]; first compound 8 µM)
1 | HCC-78 | 0.993 | 0.95 | 0.967 | 1.02 | 0.958 | 0.79 | 0.708 | 0.868 | 0.785 | 0.65 | 0.642 | 0.812 | 0.675 | 0.698 | 0.738 | 0.394 | 0.406 | 0.508 | 0.406 | 0.377
2 | HCC-366 | 1 | 0.985 | 1.01 | 0.978 | 0.955 | 0.47 | 0.323 | 0.325 | 0.339 | 0.24 | 0.648 | 0.612 | 0.641 | 0.566 | 0.601 | 0.999 | 1.1 | 0.971 | 0.878 | 0.414
3 | HCC-827 | 0.999 | 1.03 | 1.06 | 0.953 | 0.916 | 0.541 | 0.491 | 0.429 | 0.495 | 0.49 | 0.374 | 0.404 | 0.323 | 0.396 | 0.356 | 0.795 | 0.712 | 0.749 | 0.686 | 0.699
4 | HOP-62 | 1.05 | 0.965 | 1.04 | 0.981 | 0.97 | 0.363 | 0.361 | 0.391 | 0.362 | 0.339 | 0.7 | 0.64 | 0.677 | 0.601 | 0.629 | 0.852 | 0.847 | 0.827 | 0.769 | 0.799
5 | IA-LM | 0.961 | 0.871 | 1.03 | 1.07 | 1.13 | – | – | – | – | – | – | – | – | – | – | – | – | – | – | –
6 | LC-2-ad | 1.01 | 1.04 | 1.08 | 0.925 | 0.84 | 0.86 | 0.885 | 0.893 | 0.866 | 0.841 | 0.623 | 0.582 | 0.563 | 0.526 | 0.575 | 0.935 | 0.73 | 0.867 | 0.732 | 0.614
7 | LCLC-97TM1 | 0.907 | 1.04 | 1.02 | 1.13 | 1.13 | 0.231 | 0.222 | 0.2 | 0.191 | 0.176 | 0.466 | 0.408 | 0.475 | 0.438 | 0.422 | 0.611 | 0.627 | 0.543 | 0.436 | 0.656
8 | LCLC-103H | 0.951 | 1.07 | 0.931 | 0.986 | 0.915 | 0.707 | 0.623 | 0.642 | 0.675 | 0.619 | 0.347 | 0.368 | 0.304 | 0.337 | 0.291 | 0.452 | 0.538 | 0.493 | 0.493 | 0.452
9 | LK-2 | 1.13 | 1.04 | 0.909 | 0.991 | 0.853 | 0.776 | 0.861 | 0.674 | 0.835 | 0.655 | 0.511 | 0.475 | 0.306 | 0.374 | 0.244 | 0.189 | 0.228 | 0.241 | 0.211 | 0.185
